Assay results reported in patent publication EP4699613A1, “NOVEL USE OF CPNE7 PROTEIN-DERIVED PEPTIDE” (Hysensbio Co., Ltd, priority 2023, dated 2024).
No end group written: not given here.

Key:
[1] = system: Human dermal fibroblasts (hDFs); assay: WST-8 assay, cytotoxicity in dermal fibroblasts; type: cell-based; settings: 48 hours treatment; tested at 10, 100 µM, 1, 5, 10 mM; WST-8, 450nm absorbance
Protocol: Human dermal fibroblasts (hDFs) were dispensed at 0.3×10^5/well in 96-well plates (using Fibroblast Growth Medium (Lonza, CC-4126) containing 2% FBS, 0.1% Insulin, 0.1% FGF, 0.1% Gentamycin sulfate-Amphotericin) and cultured for 24 hours in an incubator at 37°C, 5% CO2 conditions.
WST-8 analysis was performed to confirm cytotoxicity of the peptide (SEQ ID NO: 96) in dermal fibroblasts. The peptide was treated on dermal fibroblasts at concentrations of 10, 100 µM, 1, 5, 10 mM respectively. After treating for 48 hours at each concentration, WST-8 solution was dispensed into the culture medium at a 10:1 ratio, light-shielded, reacted for 2 hours under 37°C incubator conditions, and then measured at 450nm absorbance with a microplate.
The peptide (SEQ ID NO: 96) of the present invention was treated on dermal fibroblasts at concentrations of 10, 100 µM, 1, 5, 10 mM respectively. After 48 hours, cell viability was quantified through WST-8 analysis.

[2] = system: human-derived three-dimensional skin tissue; assay: Skin penetration of fluorescence-conjugated peptide in human-derived three-dimensional skin tissue (confocal microscopy); type: in vitro ADME; settings: 1 mM fluorescence-conjugated peptide
Protocol: To confirm the possibility of skin penetration of the peptides of the present invention, three-dimensional skin tissue composed of epidermis and dermis was created using human-derived keratinocytes and dermal fibroblasts, and then fluorescence-conjugated peptide (SEQ ID NO: 96) of the present invention at 1 mM was treated. After treatment, the position of fluorescence was continuously observed through confocal microscopy at 1, 6, 12, and 24 hours.
FITC fluorescence was attached to the lysine residue of the peptide (SEQ ID NO: 96) of the present invention to create Peptide-FITC using the peptide (SEQ ID NO: 96) of the present invention. Peptide-FITC at 1 mM was treated on human-derived three-dimensional skin tissue (TegoScience, Neoderm-ED) and the skin penetration state of Peptide-FITC was confirmed through confocal microscopy at 1 hour, 6 hours, 12 hours, and 24 hours.

Sequence: KYKQKRRSYK [SEQ ID NO: 96, KYKQKRRSYK]
- no cytotoxicity to dermal fibroblasts up to a concentration of [1]: ≤ 5 mM
- significant cytotoxicity at a concentration of [1]: 10 mM
- position of fluorescence (skin penetration) ([2]; after 1 hour): observed in the stratum corneum
- position of fluorescence (skin penetration) ([2]; after 6 hours): observed in the epidermal layer
- position of fluorescence (skin penetration) ([2]; after 24 hours): existed in the dermal layer
- position of fluorescence (skin penetration) ([2]; from 12 hours onward): began to be observed in the dermal layer
